Laboratory results: article PMC9019904, “AD Informer Set: Chemical tools to facilitate Alzheimer's disease drug discovery” (Alzheimer's & Dementia : Translational Research & Clinical …, 2022)

Key:
[1] = test system: HMC3 (human microglia) cell line; assay: pHrodo-myelin phagocytosis/cell viability high content imaging assay: phagocytosis signal; type: cell-based
Experimental: (§1) It is important to note that stressed cells, such as those that are dying, are prone to show an increase in phagocytosis. […] MerTK promotes phagocytosis and thus MerTK inhibition is proposed to lead to inhibition of phagocytosis.[47]
(§2) phagocytosis and cell viability simultaneously. High content imaging is performed with the
(§3) (approximately 22 hours after pHrodo-myelin addition). Three measurements are extracted
(§4) intensity increase (early apoptosis) and decrease (later apoptosis), respectively. These
and 3). […]

[2] = test system: BV2 (mouse microglia) cell line; assay: as above; type: cell-based
Experimental: as §1, §2, §3, §4
and 3). […]

[3] = test system: HMC3 (human microglia) cell line; assay: pHrodo-myelin phagocytosis/cell viability high content imaging assay: viability (cell count, nuclear area, nuclear intensity); settings: for 1. Cell count (% control) / 2. Nuclear Area (% Control) / 3. Nuclear DNA Intensity (% control): 48 hours treatment
Experimental: (§5) All AD Informer Set compounds were tested in two immortalized microglial cell lines, murine (BV2), and human (HMC3), in a high‐content imaging assay in duplicate by the Chu lab. Experimental details and all data can be found as supporting information files.
(§6) The role of microglia in AD has been well documented and was thus chosen as a cell type in which to profile the AD Informer Set.[43], [44], [45] As an example, neuroinflammation, as detected by the presence of activated complement proteins, interleukins, cytokines, and chemokines in microglia and astrocytes, is increased early in AD and is considered pathogenic due to its chronic nature.[33], [34] Cytotoxic effects can be assessed by considering multiple parameters.
(§7) Microglial viability and phagocytosis studies: The pHrodo-myelin phagocytosis/cell viability assay, modified based on a published method, was run with immortalized BV2 (mouse microglia) and HMC3 (human microglia) cell lines in the Chu lab at IUSM. The 384-well plate high content analysis assay with BV2 and HMC3 microglial cell lines is used to quantify both phagocytosis and cell viability simultaneously. High content imaging is performed with the ArrayScan automatic imaging system and imaging analysis done with the software on the system. After allowing cells to adhere overnight, they are treated with compounds for total 48 hours including final 20 hours seeded with pHrodo-myelin (labeled phagocytosis ligand, purified […]
(§8) (approximately 22 hours after pHrodo-myelin addition). Three measurements are extracted from the assay: 1) phagocytosis signal by mean total phagocytosis spot intensity per cell, 2) total cell counts per well as the main measurement of cell viability, and 3) mean average nuclear intensity per cell as profiling of cell health since apoptotic cells showing nuclear intensity increase (early apoptosis) and decrease (later apoptosis), respectively. These measurements allow for evaluation of compound-induced phagocytosis (1) and cytotoxicity (2 and 3). Assays were carried out at a single concentration (10 μM). Idelalisib (10 μM) and cytochalasin-D (4 μM) were used as positive controls in the assay. All data, which was an average of 2 data points, was normalized to untreated wells and reported as % control, which is included in the Supporting Information both as a raw data file and summarized in the compound/gene-annotation file.

[4] = test system: BV2 (mouse microglia) cell line; assay: as above; settings: for 1. Cell count (% control) / 2. Nuclear Area (% Control) / 3. Nuclear DNA Intensity (% control): 48 hours treatment
Experimental: as §5, §6, §7, §8

[5] = HMC3 cells, 10 uM compound, 48 hours treatment, pHrodo-myelin final 20 hours
[6] = BV2 cells, 10 uM compound, 48 hours treatment, pHrodo-myelin final 20 hours
[7] = HMC3, compound 10 uM, pHrodo-myelin
[8] = BV2, compound 10 uM, pHrodo-myelin

| Compound | 4. Phagocytosis (% control) [1, 5] [% control] | 4. Phagocytosis (% control) [2, 6] [% control] | 1. Cell count (% control) ([3]; HMC3 cells, 10 uM compound) | 2. Nuclear Area (% Control) ([3]; HMC3 cells, 10 uM compound) | 3. Nuclear DNA Intensity (% control) ([3]; HMC3 cells, 10 uM compound) | 1. Cell count (% control) ([4]; BV2 cells, 10 uM compound) | 2. Nuclear Area (% Control) ([4]; BV2 cells, 10 uM compound) | 3. Nuclear DNA Intensity (% control) ([4]; BV2 cells, 10 uM compound) | 4. Phagocytosis (% control) [1, 7] [% control] | 4. Phagocytosis (% control) [2, 8] [% control] | 1. Cell count (% control) ([3]; HMC3, compound 10 uM) | 2. Nuclear Area (% Control) ([3]; HMC3, compound 10 uM) | 3. Nuclear DNA Intensity (% control) ([3]; HMC3, compound 10 uM) | 1. Cell count (% control) ([4]; BV2, compound 10 uM) | 2. Nuclear Area (% Control) ([4]; BV2, compound 10 uM) | 3. Nuclear DNA Intensity (% control) ([4]; BV2, compound 10 uM) | further results |
| --- | --- | --- | --- | --- | --- | --- | --- | --- | --- | --- | --- | --- | --- | --- | --- | --- | --- |
| CCN(CC)Cc1ccc(C(=O)N(CCc2ccccc2OC)[C@@H]2CCNC2)cc1.Cl.Cl [UNC10302833A] | 38.5 | 210.8 | 76.9 | 96.9 | 107.9 | 70.3 | 106.1 | 102.7 | – | – | – | – | – | – | – | – | – |
| CCN1CCN(Cc2ccc(NC(=O)c3ccc(C)c(NC(=O)c4cncc(-c5cccs5)c4)c3)cc2C(F)(F)F)CC1 [UNC10303158A] | – | – | – | – | – | – | – | – | 0.0256 | 0.0043 | 36.9 | 59.1 | 194.1 | 10.2 | 124.4 | 45.5 | – |
| Oc1cc(CNC(=S)/C=C/c2cc(O)c(O)c(Br)c2)cc(O)c1O [UNC10302699A] | – | – | – | – | – | – | – | – | 92.5 | 235.2 | 53.7 | 113.5 | 119.4 | 17.7 | 116.2 | 76.1 | – |
| OC(c1cc(C23CC4CC(CC(C4)C2)C3)nc2c(Cl)cc(Cl)cc12)C1CCCCN1 (stereo not shown) [UNC10302897A] | 67.0 | 122.3 | 110.1 | 94.7 | 100.9 | 63.8 | 105.3 | 99.1 | – | – | – | – | – | – | – | – | – |
| CCn1c(=O)/c(=C2\Sc3ccccc3N2C)s/c1=C\c1ccccn1 [UNC10302975A] | 87.9 | 118.8 | 120.1 | 99.3 | 95.9 | 107.1 | 104.2 | 108.3 | – | – | – | – | – | – | – | – | – |
| CCc1ccc(CCOc2ccc(CC3SC(=O)NC3=O)cc2)nc1.Cl (stereo not shown) [UNC10240376D] | 81.1 | 139.3 | 140.5 | 99.5 | 91.5 | 113.0 | 109.1 | 109.5 | – | – | – | – | – | – | – | – | – |
| Cc1ccc(S(=O)(=O)O)cc1.Nc1n[nH]cc1-c1cc(Cl)ccc1Oc1cc(F)c(S(=O)(=O)Nc2cscn2)cc1Cl [UNC10303160A] | – | – | – | – | – | – | – | – | 74.7 | 124.9 | 135.7 | 95.0 | 100.7 | 121.5 | 103.1 | 99.3 | – |
| CS[C@@]1(C(=O)Nc2ccc3[nH]nc(-c4ccc(OC(C)C)nc4)c3c2)CCN(CC(=O)N2CC=C(c3ccc(-c4ncn(C)n4)cc3)CC2)C1 [UNC10302902A] | 45.1 | 339.1 | 113.2 | 96.5 | 97.1 | 54.0 | 110.5 | 112.2 | – | – | – | – | – | – | – | – | – |
| C=C1C(=O)[C@]23[C@H](O)[C@H]1CC[C@H]2[C@@]12CO[C@]3(O)[C@@H](O)[C@@H]1C(C)(C)CC[C@@H]2O [Oridonin] | – | – | – | – | – | – | – | – | – | – | – | – | – | – | – | – | Inhibition of human microglial phagocytosis at 10 μM (<70% control) ([1]; 10 μM, HMC3): Y (The compound was found to inhibit phagocytosis (response threshold: <70% control) when human immortalized microglial cells were dosed at 10 μM (Y: yes)); Stimulation of mouse microglial phagocytosis at 10 μM (>150% control) ([2]; 10 μM, BV2): Y (The compound was found to stimulate phagocytosis (response threshold: >150% control) when murine immortalized microglial cells were dosed at 10 μM (Y: yes)); Human microglial cytotoxicity at 10 μM (<70% control) ([3]; 10 μM, HMC3): Y (The compound was found to be cytotoxic (cell count threshold: <70% control) when human immortalized microglial cells were dosed at 10 μM (Y: yes)); Mouse microglial cytotoxicity at 10 μM (<70% control) ([4]; 10 μM, BV2): Y (The compound was found to be cytotoxic (cell count threshold: <70% control) when murine immortalized microglial cells were dosed at 10 μM (Y: yes)) |
| COCC(=O)O[C@]1(CCN(C)CCCc2nc3ccccc3[nH]2)CCc2cc(F)ccc2[C@@H]1C(C)C.Cl.Cl [UNC10303193A] | – | – | – | – | – | – | – | – | 9.6 | 0.0 | 77.7 | 77.5 | 143.7 | 0.0 | 78.1 | 3.8 | – |
| CNC(=O)c1cccc(-c2ccc3c(N4CCOC[C@@H]4C)nc(N4CCOC[C@@H]4C)nc3n2)c1 [UNC10302837A] | – | – | – | – | – | – | – | – | 149.5 | 328.3 | 99.5 | 83.5 | 103.3 | 47.4 | 94.2 | 117.6 | – |
| Cc1ccc(NC(=O)c2ccc(CN3CCN(C)CC3)cc2)cc1Nc1nc(-c2cccnc2)cs1 [UNC10126573A, masitinib, reference compound] | 3.5 | 0.0635 | 71.0 | 92.7 | 124.1 | 7.7 | 107.9 | 43.3 | – | – | – | – | – | – | – | – | cytotoxicity in human microglial cells (cell count < 70% control) ([3]; HMC3, 10 μM, 48 hours, cell count): cytotoxicity only in mouse microglia; cytotoxicity in mouse microglial cells (cell count < 70% control) ([4]; BV2, 10 μM, 48 hours, cell count): displayed cytotoxicity only in mouse microglia |
